Data from ChEMBL document CHEMBL1201862, “PubChem BioAssay data set” (2004).
Calls of active or inactive are those of the source.

Assays:
[1] = target: Sphingosine 1-phosphate receptor 4 (Homo sapiens, UniProt O95977); test: Fluorescence dose response cell-based high throughput screening assay for antagonists of the Sphingosine 1-Phosphate Receptor 4 (S1P4). [Related pubchem assays: 1524 (Confirmation in triplicates.), 1510 (Primary screen.)]; type: functional
Paired box protein Pax-8 = Paired box protein Pax-8 (Homo sapiens, UniProt Q06710); test: inhibitors of PAX8-driven TPO luciferase reporter, dose response, RMG-I cells, cherry-pick (AID 687027); type: functional, cell-based;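 further: luciferase reporter driven by Pax8 target thyroperoxidase promoter measured by SteadyGlo luminescence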
Fatty acid synthase = Fatty acid synthase (Homo sapiens, UniProt P49327); test: FAS thioesterase domain inhibitors, dose response, biochemical, endpoint fluorescence intensity, uHTS hits (AID 624327); type: functional;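 further: fluorescence from hydrolysis of an O-methyl fluorescein acyl ester substrate by the enzyme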
[2] = target: T1, Tyrosyl-DNA phosphodiesterase 2 (Homo sapiens, UniProt O95551); test: human TDP2 enzyme inhibitors, dose response, biochemical, epi absorbance, IC50 (AID 743297)
T1 sequence (O95551 whole entry): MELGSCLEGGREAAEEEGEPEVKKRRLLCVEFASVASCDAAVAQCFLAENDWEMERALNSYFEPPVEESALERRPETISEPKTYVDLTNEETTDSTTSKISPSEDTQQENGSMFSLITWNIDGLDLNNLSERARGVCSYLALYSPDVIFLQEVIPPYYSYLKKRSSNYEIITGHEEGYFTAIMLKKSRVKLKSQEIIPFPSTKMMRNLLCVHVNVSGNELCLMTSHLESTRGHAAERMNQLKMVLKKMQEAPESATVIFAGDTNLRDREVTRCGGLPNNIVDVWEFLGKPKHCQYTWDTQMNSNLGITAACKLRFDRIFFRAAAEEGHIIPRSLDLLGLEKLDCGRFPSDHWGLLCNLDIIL

[3] = target: T2, Voltage-gated N-type calcium channel alpha-1B subunit/Amyloid beta A4 precursor protein-binding family A member 1 (Homo sapiens, UniProt Q00975+Q02410); type: protein assay
[4] = target: T2, Voltage-gated N-type calcium channel alpha-1B subunit/Amyloid beta A4 precursor protein-binding family A member 1; type: protein assay; remark: listed apart in the source
[5] = target: Glucose-6-phosphate 1-dehydrogenase (Homo sapiens, UniProt P11413); test: human G6PD enzyme inhibitors, dose response, selectivity assay for P. falciparum G6PD inhibitor project, biochemical, fluorescence (AID 504792); type: functional
Large T antigen = Large T antigen (Simian virus 40, UniProt P03070); type: functional, Betapolyomavirus macacae;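 further: Confirmatory-stage PubChem screen for compounds that inhibit SV40 T antigen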
Ephrin type-A receptor 4 = Ephrin type-A receptor 4 (Mus musculus, UniProt Q03137); test: inhibitors of EphA4 binding to KYL peptide, primary screen, biochemical, colorimetric, mouse EphA4 (AID 689); type: functional
Bcl-2-like protein 10 = target: T3, Bcl-2-like protein 10 (Homo sapiens, UniProt Q9HD36); test: displacers of TR3 peptide from Bcl-B, primary screen, selectivity assay for Bfl-1 inhibitor project, biochemical, fluorescence polarization, FITC-TR3 peptide (AID 748);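 further: fluorescence polarization from a fluorescein-labelled TR3 peptide binding purified Bcl-B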
T3 sequence (Q9HD36 whole entry): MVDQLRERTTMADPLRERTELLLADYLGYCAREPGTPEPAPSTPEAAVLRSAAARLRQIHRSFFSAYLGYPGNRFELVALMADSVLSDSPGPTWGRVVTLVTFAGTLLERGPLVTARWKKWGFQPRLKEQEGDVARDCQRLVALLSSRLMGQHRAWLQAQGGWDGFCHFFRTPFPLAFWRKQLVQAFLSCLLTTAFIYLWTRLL

[6] = target: Megakaryocyte-associated tyrosine-protein kinase (Homo sapiens, UniProt P42679); type: functional;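 further: affinity measured as one member of a kinase panel (Navigating the Kinome) against MATK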
[7] = target: Dual specificity tyrosine-phosphorylation-regulated kinase 4 (Homo sapiens, UniProt Q9NR20); type: functional
[8] = target: Serine/threonine-protein kinase 17A (Homo sapiens, UniProt Q9UEE5); type: functional
[9] = target: Serine/threonine-protein kinase BRSK1 (Homo sapiens, UniProt Q8TDC3); type: functional;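 further: measured within a kinome-wide kinase panel, with the target listed as KIAA1811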
[10] = target: Mitogen-activated protein kinase 9 (Homo sapiens, UniProt P45984); type: functional;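 further: value from a kinome panel profiling assay, MAPK9 panel entry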
[11] = target: Testis-specific serine/threonine-protein kinase 2 (Homo sapiens, UniProt Q96PF2); type: functional;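 further: part of the Navigating the Kinome panel, target entry STK22B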
[12] = target: Interleukin-1 receptor-associated kinase 1 (Homo sapiens, UniProt P51617); type: functional;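 further: IRAK1 tested as one member of a kinome panel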
[13] = target: Serine/threonine-protein kinase Chk2 (Homo sapiens, UniProt O96017); type: functional;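 further: CHEK2 entry within a kinome-wide screening panel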
[14] = target: Tyrosine-protein kinase ABL1 (Homo sapiens, UniProt P00519); type: functional
[15] = target: Tyrosine-protein kinase receptor TYRO3 (Homo sapiens, UniProt Q06418); type: functional;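 further: TYRO3 value obtained as one member of a kinome-wide profiling panel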
[16] = target: Serine/threonine-protein kinase pim-3 (Homo sapiens, UniProt Q86V86); type: functional;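 further: value obtained as one member of a broad kinase panel profiling effort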
[17] = growth suppression of PTEN-null colon cells, dose response, cell-based, HCT116 PTEN knockout (AID 1047); type: functional;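 further: HCT116 colon tumor cells with PTEN knocked out; cells exposed to compound for 60 hours before readout; potency for loss of cell viability measured by luminescence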
[18] = target: T4, Heat shock factor protein 1 (Mus musculus, UniProt P38532); test: inhibition of MG132-induced HSE-luciferase signal, confirmation, cell-based, NIH3T3, luminescence, dose retest (AID 2382); type: functional;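 further: NIH3T3 fibroblasts with HSF1-driven luciferase reporter stressed by proteasome inhibitor MG132; luminescence from HSF1-driven luciferase expression after 8 hours of MG132 stress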
T4 sequence (P38532 whole entry): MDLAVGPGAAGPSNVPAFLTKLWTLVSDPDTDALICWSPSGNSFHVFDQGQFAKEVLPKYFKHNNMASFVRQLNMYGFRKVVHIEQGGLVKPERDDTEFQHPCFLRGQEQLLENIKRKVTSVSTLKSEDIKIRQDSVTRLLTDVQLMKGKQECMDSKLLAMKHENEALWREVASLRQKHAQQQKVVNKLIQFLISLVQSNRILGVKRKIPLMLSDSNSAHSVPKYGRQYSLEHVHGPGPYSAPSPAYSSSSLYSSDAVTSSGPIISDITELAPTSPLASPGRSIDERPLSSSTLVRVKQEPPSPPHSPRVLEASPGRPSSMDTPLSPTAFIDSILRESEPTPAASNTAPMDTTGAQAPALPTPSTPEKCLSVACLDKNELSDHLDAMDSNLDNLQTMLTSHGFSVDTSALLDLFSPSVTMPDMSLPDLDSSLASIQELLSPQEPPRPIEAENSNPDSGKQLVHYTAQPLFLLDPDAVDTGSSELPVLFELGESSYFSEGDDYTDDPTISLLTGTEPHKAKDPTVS

[19] = target: T5, Sentrin-specific protease 8 (Homo sapiens, UniProt Q96LD8); type: functional
T5 sequence (Q96LD8 whole entry): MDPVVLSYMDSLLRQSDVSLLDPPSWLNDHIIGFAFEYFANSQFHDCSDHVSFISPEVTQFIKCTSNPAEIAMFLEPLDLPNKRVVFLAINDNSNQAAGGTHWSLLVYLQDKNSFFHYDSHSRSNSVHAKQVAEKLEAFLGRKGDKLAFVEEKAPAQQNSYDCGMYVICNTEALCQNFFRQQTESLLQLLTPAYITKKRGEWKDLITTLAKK

T2 sequence (Q00975 whole entry): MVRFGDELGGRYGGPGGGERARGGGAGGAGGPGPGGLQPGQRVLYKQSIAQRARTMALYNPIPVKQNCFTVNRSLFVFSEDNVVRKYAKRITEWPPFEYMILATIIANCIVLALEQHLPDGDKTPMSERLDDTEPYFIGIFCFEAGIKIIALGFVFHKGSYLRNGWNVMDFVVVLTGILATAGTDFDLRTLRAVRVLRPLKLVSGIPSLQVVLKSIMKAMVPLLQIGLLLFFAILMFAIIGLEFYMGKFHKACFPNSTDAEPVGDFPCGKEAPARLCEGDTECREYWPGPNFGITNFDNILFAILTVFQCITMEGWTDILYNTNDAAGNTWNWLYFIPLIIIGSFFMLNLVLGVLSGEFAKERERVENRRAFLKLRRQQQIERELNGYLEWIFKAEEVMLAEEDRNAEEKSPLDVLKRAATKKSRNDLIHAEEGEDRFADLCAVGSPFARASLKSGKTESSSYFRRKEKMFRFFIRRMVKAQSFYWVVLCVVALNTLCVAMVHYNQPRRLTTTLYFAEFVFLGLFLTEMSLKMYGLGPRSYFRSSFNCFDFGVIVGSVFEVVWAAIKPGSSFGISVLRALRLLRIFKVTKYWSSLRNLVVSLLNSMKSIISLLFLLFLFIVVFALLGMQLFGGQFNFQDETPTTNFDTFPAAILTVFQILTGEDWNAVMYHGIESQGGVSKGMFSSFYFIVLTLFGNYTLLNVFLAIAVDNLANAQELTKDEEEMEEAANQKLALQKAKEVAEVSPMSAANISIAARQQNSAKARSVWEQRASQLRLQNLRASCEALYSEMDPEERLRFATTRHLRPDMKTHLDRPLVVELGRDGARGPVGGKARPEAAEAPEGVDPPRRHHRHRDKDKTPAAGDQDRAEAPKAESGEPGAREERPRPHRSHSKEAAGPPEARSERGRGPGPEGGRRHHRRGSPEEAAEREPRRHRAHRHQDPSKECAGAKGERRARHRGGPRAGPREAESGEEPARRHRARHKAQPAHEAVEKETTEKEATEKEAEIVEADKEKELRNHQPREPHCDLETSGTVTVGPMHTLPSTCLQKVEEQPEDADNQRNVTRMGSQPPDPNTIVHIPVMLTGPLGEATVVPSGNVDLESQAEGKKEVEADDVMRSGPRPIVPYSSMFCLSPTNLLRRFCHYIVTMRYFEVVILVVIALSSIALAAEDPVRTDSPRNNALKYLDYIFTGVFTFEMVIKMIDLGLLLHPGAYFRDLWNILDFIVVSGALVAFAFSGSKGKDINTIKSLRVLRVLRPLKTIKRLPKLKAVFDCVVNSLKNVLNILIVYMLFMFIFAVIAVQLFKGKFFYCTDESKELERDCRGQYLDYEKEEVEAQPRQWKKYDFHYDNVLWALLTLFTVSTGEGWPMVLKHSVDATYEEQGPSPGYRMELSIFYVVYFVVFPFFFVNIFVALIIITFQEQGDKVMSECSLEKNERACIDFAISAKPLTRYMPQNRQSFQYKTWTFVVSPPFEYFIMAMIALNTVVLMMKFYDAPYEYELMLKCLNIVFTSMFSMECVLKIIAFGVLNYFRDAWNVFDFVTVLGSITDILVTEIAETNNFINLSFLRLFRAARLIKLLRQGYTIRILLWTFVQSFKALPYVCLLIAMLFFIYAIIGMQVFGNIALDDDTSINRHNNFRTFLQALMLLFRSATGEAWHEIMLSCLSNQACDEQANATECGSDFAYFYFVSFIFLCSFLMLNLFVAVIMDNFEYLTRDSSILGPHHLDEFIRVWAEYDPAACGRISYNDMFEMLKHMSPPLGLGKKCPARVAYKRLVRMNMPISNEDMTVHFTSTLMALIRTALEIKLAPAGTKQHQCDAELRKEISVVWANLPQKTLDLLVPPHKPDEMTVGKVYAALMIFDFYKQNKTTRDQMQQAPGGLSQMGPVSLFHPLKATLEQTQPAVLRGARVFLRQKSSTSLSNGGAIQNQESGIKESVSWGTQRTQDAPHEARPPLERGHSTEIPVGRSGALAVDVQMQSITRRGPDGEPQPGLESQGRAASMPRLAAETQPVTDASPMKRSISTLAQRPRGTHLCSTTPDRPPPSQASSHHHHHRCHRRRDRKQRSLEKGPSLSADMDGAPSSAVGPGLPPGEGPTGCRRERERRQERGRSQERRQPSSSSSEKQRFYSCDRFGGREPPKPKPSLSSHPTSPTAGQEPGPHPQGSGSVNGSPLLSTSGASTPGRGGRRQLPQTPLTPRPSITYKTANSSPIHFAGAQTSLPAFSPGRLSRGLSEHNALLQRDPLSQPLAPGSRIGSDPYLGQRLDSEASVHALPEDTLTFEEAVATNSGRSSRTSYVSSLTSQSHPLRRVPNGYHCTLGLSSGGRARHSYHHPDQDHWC
T2 sequence (Q02410 whole entry): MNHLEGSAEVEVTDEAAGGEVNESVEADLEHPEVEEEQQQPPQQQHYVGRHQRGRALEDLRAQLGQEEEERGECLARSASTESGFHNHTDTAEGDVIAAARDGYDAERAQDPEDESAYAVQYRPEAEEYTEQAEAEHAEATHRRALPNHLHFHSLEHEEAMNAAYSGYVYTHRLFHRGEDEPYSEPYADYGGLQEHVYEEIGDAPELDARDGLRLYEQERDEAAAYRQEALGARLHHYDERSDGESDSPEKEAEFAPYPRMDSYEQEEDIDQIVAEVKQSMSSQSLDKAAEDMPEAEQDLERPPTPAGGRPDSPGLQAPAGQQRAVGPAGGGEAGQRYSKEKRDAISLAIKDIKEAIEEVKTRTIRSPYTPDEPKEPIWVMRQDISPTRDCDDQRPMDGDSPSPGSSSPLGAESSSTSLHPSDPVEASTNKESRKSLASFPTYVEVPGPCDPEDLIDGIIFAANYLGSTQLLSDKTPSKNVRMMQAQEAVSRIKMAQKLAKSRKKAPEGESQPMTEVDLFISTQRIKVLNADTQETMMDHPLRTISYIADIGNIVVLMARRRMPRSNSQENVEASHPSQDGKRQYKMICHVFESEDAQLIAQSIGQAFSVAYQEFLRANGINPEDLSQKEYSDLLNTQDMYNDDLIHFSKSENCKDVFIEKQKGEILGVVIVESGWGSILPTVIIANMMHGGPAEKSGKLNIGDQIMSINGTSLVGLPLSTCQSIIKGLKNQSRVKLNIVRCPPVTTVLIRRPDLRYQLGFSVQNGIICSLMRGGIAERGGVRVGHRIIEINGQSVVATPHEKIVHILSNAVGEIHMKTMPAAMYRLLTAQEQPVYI
Sequence of Serine/threonine-protein kinase 17A (Q9UEE5 whole entry): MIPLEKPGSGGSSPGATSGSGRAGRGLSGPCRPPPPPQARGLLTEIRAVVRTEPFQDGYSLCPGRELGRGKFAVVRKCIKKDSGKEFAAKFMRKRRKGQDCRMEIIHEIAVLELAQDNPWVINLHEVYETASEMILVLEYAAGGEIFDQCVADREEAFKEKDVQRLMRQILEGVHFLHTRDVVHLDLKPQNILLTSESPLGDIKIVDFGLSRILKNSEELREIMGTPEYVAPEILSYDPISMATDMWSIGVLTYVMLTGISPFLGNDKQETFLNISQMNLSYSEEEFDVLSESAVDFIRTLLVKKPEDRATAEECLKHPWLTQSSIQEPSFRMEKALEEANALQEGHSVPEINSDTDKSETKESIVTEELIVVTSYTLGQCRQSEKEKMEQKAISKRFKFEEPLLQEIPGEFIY
Sequence of Dual specificity tyrosine-phosphorylation-regulated kinase 4 (Q9NR20 whole entry): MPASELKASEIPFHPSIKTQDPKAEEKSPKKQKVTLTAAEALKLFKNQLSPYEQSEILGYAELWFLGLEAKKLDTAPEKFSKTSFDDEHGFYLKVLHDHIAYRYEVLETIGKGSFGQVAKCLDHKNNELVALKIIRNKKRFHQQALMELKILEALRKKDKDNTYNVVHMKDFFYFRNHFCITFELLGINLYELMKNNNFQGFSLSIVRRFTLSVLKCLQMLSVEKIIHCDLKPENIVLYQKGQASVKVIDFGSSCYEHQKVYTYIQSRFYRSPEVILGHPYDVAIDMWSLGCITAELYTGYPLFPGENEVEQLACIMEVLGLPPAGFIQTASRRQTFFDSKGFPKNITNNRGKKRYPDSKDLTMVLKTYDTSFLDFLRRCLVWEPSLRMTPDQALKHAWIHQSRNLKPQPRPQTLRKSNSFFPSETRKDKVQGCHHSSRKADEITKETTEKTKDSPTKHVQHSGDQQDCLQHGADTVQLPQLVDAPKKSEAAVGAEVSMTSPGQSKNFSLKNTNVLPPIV
Sequence of Paired box protein Pax-8 (Q06710 whole entry, the tested form may be a part): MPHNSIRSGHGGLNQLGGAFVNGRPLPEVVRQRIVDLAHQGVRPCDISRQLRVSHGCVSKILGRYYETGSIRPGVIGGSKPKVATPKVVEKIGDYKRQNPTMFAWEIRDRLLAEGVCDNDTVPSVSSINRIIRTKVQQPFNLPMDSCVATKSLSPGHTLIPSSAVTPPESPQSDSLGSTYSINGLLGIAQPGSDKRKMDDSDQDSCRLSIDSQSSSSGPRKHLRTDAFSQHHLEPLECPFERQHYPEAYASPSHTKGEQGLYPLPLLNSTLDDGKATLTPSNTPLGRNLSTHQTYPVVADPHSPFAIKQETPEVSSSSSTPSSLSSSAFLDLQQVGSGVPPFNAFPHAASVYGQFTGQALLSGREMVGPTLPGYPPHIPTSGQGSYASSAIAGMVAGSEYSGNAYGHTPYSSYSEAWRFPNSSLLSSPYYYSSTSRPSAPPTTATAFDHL

CC(=O)N(C1=C(Cl)C(=O)c2ccccc2C1=O)C1CCCCC1
IC50 [1]: 2030 nM (active)
AC50 (Paired box protein Pax-8): 2740 nM (active)
IC50 (Fatty acid synthase): 3020 nM (active)
IC50 [2]: 19500 nM (inactive)
IC50 [3]: 745 nM (active)
IC50 [4]: 3650 nM (active)

Oc1ccc(-c2cn3c(n2)SCC3)cc1O
IC50 [5]: 41000 nM (inactive)
IC50 (Large T antigen): 9740 nM (active)
IC50 (Ephrin type-A receptor 4): 42300 nM (active)
IC50 (Bcl-2-like protein 10): 79100 nM (inactive)

O=C1Nc2ccc3ncsc3c2C1=CNc1ccc(S(=O)(=O)Nc2ccccn2)cc1
Ki [6]: 200 nM (active)
Ki [7]: 3160 nM (active)
Ki [8]: 3.98 nM (active)
Ki [9]: 12.6 nM (active)
Ki [10]: 126 nM (active)
Ki [11]: > 1580 nM (inactive)
Ki [12]: 20 nM (active)
Ki [13]: 158 nM (active)
Ki [14]: > 631 nM (inactive)
Ki [15]: 126 nM (active)
Ki [16]: 1260 nM (active)

Cc1ccc(NC2=C/C(=N\S(=O)(=O)c3cccs3)c3ccccc3C2=O)c(C)c1
EC50 [17]: 1100 nM (active)
EC50 [18]: 1560 nM (active)

COc1ccc(/C=N/NC(=O)c2nn(-c3ccccc3)c(=O)c3c(N)scc23)cc1
IC50 [19]: 346 nM (active)
